System: male and female Sprague–Dawley rats
Assay: 90-day subchronic oral gavage toxicity study
Assay type: in vivo, rat
Parameters: key to NOEL, absolute liver weight increase / LOEL, absolute liver weight increase / NOEL, relative kidney weight increase / LOEL, relative kidney weight increase / NOEL, absolute kidney weight increase / LOEL, absolute kidney weight increase / NOEL, relative liver weight increase / LOEL, relative liver weight increase: NR: no response, no statistically significant dose-dependent changes
Method: Subchronic (90-day) studies were performed in accordance with current U.S. EPA’s Toxic Substances Control Act Good Laboratory Practice (GLP) Standards, with the following two general exceptions to the GLP guidelines: Analysis of the dose formulations was conducted according to RTI-approved Standard Operating Procedures, and corn oil (the vehicle) was not characterized (certificate of analysis from the vendor is available in the appendices to the final reports). Male and female Sprague–Dawley rats (five dose levels plus a control, n = 10/sex/dose group, corn oil vehicle dose volume of 3 mL/kg; oral gavage) were used in these studies, and the rats were euthanized on SD 91. The dose levels for PFHI were 0, 12.5, 25, 50, 100, and 200 mg/kg-day. The dose levels for MHFPK were 0, 18.8, 37.5, 75, 150, and 300 mg/kg-day. The dose levels for PFNAC were 0, 0.1, 0.3, 1.0, 3.0, and 10 mg/kg-day for male rats and 0, 0.3, 1.0, 3.0, 10, and 30 mg/kg-day for female rats. For CTFPA, the dose levels were 0, 1.9, 3.8. 7.5, 15, and 30 mg/kg-day for male rats and 0, 6.3, 12.5, 25, 50, and 100 mg/kg-day for female rats. For each PFAS, three batches of dosing solution were prepared. The time between the batch preparation of the dosing solutions ranged between 29 and 39 days. Blood samples were collected from all the rats at termination for serum chemistry, hematology, coagulation, and the analysis of the parent PFAS chemical in the plasma. In vivo data collection and further detail on the endpoints examined postmortem are described below.
The rats were observed twice daily for morbidity and mortality throughout the study period. At least once prior to randomization to test groups and weekly thereafter, the rats were physically examined, and bodyweights were obtained. Feed consumption was quantified weekly starting on SD 1.
Neurotoxicity was evaluated using the functional observational battery (FOB) and measuring locomotor activity (LMA) 2–4 h post dosing on SDs 78–80 and 80–84, respectively. For both the 14- and 90-day studies, an ophthalmologic examination was conducted prior to randomization and near the end of the study, using indirect ophthalmoscopy and slit–lamp biomicroscopy (as needed) after the administration of a mydriatic solution.
Hematology, biochemistry, and coagulation endpoints were measured at the termination of the study. A Siemens Advia 2120i hematology analyzer (Siemens Healthineers, Erlangen, Germany) was used to measure (or calculate) the parameters related to the complete blood count, leukocyte differential count, and reticulocyte count. The hematology parameters are listed and described in Table 2. The prothrombin time […] and activated partial thromboplastin time (APTT) were measured using an Instrumentation Laboratory (Bedford, MA, USA) ACL Elite Pro coagulation analyzer (laser–nephelometric centrifugal method).
At necropsy, the rats were visually examined for external abnormalities and organ weights (absolute and relative to the BW and brain weight), which were recorded (paired organs weighed together). The tissues were preserved in 10% neutral buffered formalin (NBF), except for the ocular tissues, testes, and epididymides, which were preserved in modified Davidson’s fixative and later transferred to 10% NBF. Bone marrow smears were prepared from the femurs, and the slides were air-dried, fixed in methanol, stained, and stored at room temperature for possible future evaluation. The preserved tissues were embedded in paraffin, sectioned, stained with hematoxylin and eosin, and examined by a board-certified veterinary pathologist.
Statistical analysis was performed using Provantis™ Version 10 or greater (Instem LSS, Limited; Stone, Staffordshire, UK). Differences among the treatment groups compared to the control were evaluated using one-way analysis of variance (ANOVA) if the underlying assumptions of a normal distribution (Shapiro–Wilk test) and the homogeneity of the variance (Levene’s test) were satisfied. […]

## CC(=O)C(F)(F)C(F)(F)C(F)(F)F [MHFPK, Methyl heptafluoropropyl ketone]
female, 300 mg/kg-day
  MPV: 9.01 ± 0.50 fL
  PT: 15.33 s
  RBC: 8.159±0.351 M/µL
  Total BW change: 95.70 g
  Total Food Consumed: 1575 g
male
  LOEL, absolute kidney weight increase: NR
  LOEL, absolute liver weight increase: NR
  LOEL, relative kidney weight increase: NR
  LOEL, relative liver weight increase: NR
  NOEL, absolute kidney weight increase: NR
  NOEL, absolute liver weight increase: NR
  NOEL, relative kidney weight increase: NR
  NOEL, relative liver weight increase: NR
male, 18.8 mg/kg-day
  % BW Gain: 103.77%
  % Diff, % BW Gain: 6.06%
  % Diff, Total BW change: 2.29%
  % Diff, Total Food Consumed: -1.53%
  A/G: 0.85±0.03 ratio
  ABNEUT: 2.172±0.976 K/µL
  ABRETi: 179.08±30.61 10^9/L
  ABSEOS: 0.110±0.032 K/µL
  ALB: 3.17 ± 0.18 g/dL
  ALPi: 114.0±26.8 U/L
  APTT: 19.56 s
  BUN: 14.8 ± 1.4 mg/dL
  CHOL: 78.6 ± 12.0 mg/dL
  GLOB: 3.75 ± 0.18 g/dL
  GLUC: 187.8 ± 37.5 mg/dL
  HCT: 49.80±1.91%
  HGB: 15.51 ± 0.80 g/dL
  Kidney Weight: 3.11 g
  Kidney/Body Weight: 0.54%
  Kidney/Brain Weight: 144%
  Liver Weight: 14.06 g
  Liver/Body Weight: 2.41%
  Liver/Brain Weight: 649%
  MPV: 7.85 ± 0.72 fL
  PT: 15.63 s
  RBC: 8.891±0.355 M/µL
  Total BW change: 300.42 g
  Total Food Consumed: 2143 g
male, 37.5 mg/kg-day
  % BW Gain: 101.81%
  % Diff, % BW Gain: 4.06%
  % Diff, Total BW change: 3.12%
  % Diff, Total Food Consumed: -2.01%
  A/G: 0.86±0.07 ratio
  ABNEUT: 1.859±0.620 K/µL
  ABRETi: 192.99±15.30 10^9/L
  ABSEOS: 0.179±0.069 K/µL
  ALB: 3.17 ± 0.15 g/dL
  ALPi: 117.7±20.1 U/L
  APTT: 18.03 s
  BUN: 16.3 ± 1.2 mg/dL
  CHOL: 75.9 ± 12.3 mg/dL
  GLOB: 3.69 ± 0.27 g/dL
  GLUC: 217.1 ± 33.5 mg/dL
  HCT: 49.12±1.32%
  HGB: 15.11 ± 0.46 g/dL
  Kidney Weight: 2.95 g
  Kidney/Body Weight: 0.50%
  Kidney/Brain Weight: 134%
  Liver Weight: 13.83 g
  Liver/Body Weight: 2.34%
  Liver/Brain Weight: 627%
  MPV: 8.18 ± 0.65 fL
  PT: 16.31 s
  RBC: 8.732±0.259 M/µL
  Total BW change: 302.87 g
  Total Food Consumed: 2133 g
male, 75 mg/kg-day
  % BW Gain: 102.83%
  % Diff, % BW Gain: 5.10%
  % Diff, Total BW change: 5.10%
  % Diff, Total Food Consumed: 1.92%
  A/G: 0.86±0.06 ratio
  ABNEUT: 1.731±0.709 K/µL
  ABRETi: 194.58±21.06 10^9/L
  ABSEOS: 0.132±0.036 K/µL

Source: PMC12298827, “Subchronic Toxicities of Four Per- and Polyfluoroalkyl Substances (PFASs) by Oral Exposure in Sprague–Dawley Rats” (Toxics, 2025)
